For one test, the target named is μ-opioid receptors (Homo sapiens (Human), UniProt P35372). In words: μ-opioid receptor [35S]GTPγS functional assay, U-2 OS cells. Format: biochemical. Particulars: μ GTP; for EC50: read-out: Activity Response μ EC50 (nM) [mean ± SEM]; for Emax: relative to DAMGO, read-out: Activity Response μ Emax (%). The method, then: [^35S]GTPγS functional assays were conducted using freshly thawed μ-receptor membranes prepared from a cell line expressing recombinant μ opioid receptor in a HEK-293, CHO or U-2 OS cell background or purchased from a commercial source (Perkin Elmer, Shelton, Conn.; or DiscovRx, Fremont, Calif.). Assay reactions were prepared by sequentially adding the following reagents to binding buffer (100 mM NaCl, 10 mM MgCl2, 20 mM HEPES, pH 7.4) on ice (final concentrations indicated): membrane protein (0.026 mg/mL), saponin ([…]), GDP ([…]) and [^35S]GTPγS (0.20 nM; Perkin Elmer, Shelton, Conn.). The prepared membrane solution (190 μl/well) was transferred to 96-shallow well polypropylene plates containing 10 μl of 20× concentrated stock solutions of the agonist [D-Ala^2, N-methyl-Phe^4 Gly-ol^5]-enkephalin (DAMGO) prepared in dimethyl sulfoxide (DMSO). Plates were incubated for 30 min at about 25° C. with shaking. Reactions were terminated by rapid filtration onto 96-well Unifilter GF/B filter plates (Perkin Elmer, Shelton, Conn.) using a 96-well tissue harvester (Perkin Elmer, Shelton, Conn.) followed by three filtration washes with 200 μl of ice-cold wash buffer (10 mM NaH2PO4, 10 mM Na2HPO4, pH 7.4). Filter plates were subsequently dried at 50° C. for 2-3 hours. BetaScint scintillation cocktail (Perkin Elmer, Shelton, Conn.) was added (50 μl/well) and plates were counted using a Packard Top-Count for 1 min/well. Data were analyzed using the sigmoidal dose-response curve fitting functions in GraphPad PRISM v. 3.0, or an in-house function for non-linear, sigmoidal dose-response curve-fitting.
μ GTP EC50 is the concentration of a compound providing 50% of the maximal response for the compound at a μ-opioid receptor.
μ GTP Emax (%) is the maximal effect elicited by a compound relative to the effect elicited by DAMGO, a standard μ agonist. Generally, the μ GTP Emax (%) value measures the efficacy of a compound to treat or prevent pain or other Conditions.
The following tables provide results on the efficacy of binding and activity response of exemplified Compounds of the Invention at the μ- and κ-opioid receptors. In TABLE 3, binding affinity of certain Compounds of the Invention to the μ- and κ-opioid receptors was determined as described above. In TABLE 4, activity response of certain Compounds of the Invention to the μ- and κ-opioid receptors was determined as described above for functional assays using HEK-293 cells. In TABLE 5, activity response of certain Compounds of the Invention to the μ- and κ-opioid receptors was determined as described above using U-2 OS cells.
In general terms: GTPγS resists hydrolysis and so accumulates on activated G proteins.

The target in a further test is κ opioid receptor (Homo sapiens (Human), UniProt P41145). Briefly: κ-opioid receptor [35S]GTPγS functional assay, U-2 OS cells. Format: biochemical. Particulars: κ GTP; for EC50: read-out: Activity Response κ EC50 (nM) [mean ± SEM]; for Emax: relative to U69,593, read-out: Activity Response κ Emax (%). On the procedure: Membranes from HEK-293 cells, CHO or U-2 OS cells expressing the recombinant human kappa opioid receptor (κ) were prepared by lysing cells in ice cold hypotonic buffer (2.5 mM MgCl2, 50 mM HEPES, pH 7.4) (10 mL/10 cm dish) followed by homogenization with a tissue grinder/Teflon pestle. Membranes were collected by centrifugation at 30,000×g for 15 min at 4° C. and pellets were resuspended in hypotonic buffer to a final concentration of 1-3 mg/mL. Protein concentrations were determined using the BioRad protein assay reagent with bovine serum albumen as standard. Aliquots of κ receptor membranes were stored at −80° C.
Functional [^35S]GTPγS binding assays were conducted as follows. κ opioid receptor membrane solution was prepared by sequentially adding final concentrations of 0.026 μg/μl κ membrane protein (in-house), 10 μg/mL saponin, 3 μM GDP and 0.20 nM [^35S]GTPγS to binding buffer (100 mM NaCl, 10 mM MgCl2, 20 mM HEPES, pH 7.4) on ice. The prepared membrane solution (190 μl/well) was transferred to 96-shallow well polypropylene plates containing 10 μl of 20× concentrated stock solutions of agonist prepared in DMSO. Plates were incubated for 30 min at a temperature of about 25° C. with shaking. Reactions were terminated by rapid filtration onto 96-well Unifilter GF/B filter plates (Perkin Elmer, Shelton, Conn.) using a 96-well tissue harvester (Packard) and followed by three filtration washes with 200 μl ice-cold binding buffer (10 mM NaH2PO4, 10 mM Na2HPO4, pH 7.4). Filter plates were subsequently dried at 50° C. for 2-3 hours. Fifty μl/well scintillation cocktail (Perkin Elmer, Shelton, Conn.) was added and plates were counted in a Packard Top-Count for 1 min/well.
κ GTP EC50 is the concentration of a compound providing 50% of the maximal response for the compound at a κ receptor.
κ GTP Emax (%) is the maximal effect elicited by a compound relative to the effect elicited by U69,593.
In TABLE 3, binding affinity of certain Compounds of the Invention to the μ- and κ-opioid receptors was determined as described above. In TABLE 4, activity response of certain Compounds of the Invention to the μ- and κ-opioid receptors was determined as described above for functional assays using HEK-293 cells. In TABLE 5, activity response of certain Compounds of the Invention to the μ- and κ-opioid receptors was determined as described above using U-2 OS cells.

SMILES strings stand for the structures. A value given as a limit tells only on which side of the number the result lay.

As usually defined, the EC50 is the concentration that produces a half-maximal response. Broadly, the Emax is the size of the effect at its maximum, as opposed to the concentration needed. Take `O=C1C[C@]23CCN(CC4CC4)[C@H](Cc4ccc(O)cc42)[C@]3(O)C[C@@H]1CC1CCCC1` [Compound 65, (4bR,7S,8aS,9R)-7-(cyclopentylmethyl)-11-(cyclopropylmethyl)-3,8a-dihydroxy-8,8a,9,10-tetrahydro-5H-9,4b-(epiminoethano)phenanthren-6(7H)-one]: the EC50 on μ-opioid receptors was > 200000 nM; at κ opioid receptor, 2.57 ± 0.24 nM. The Emax was 4% at μ-opioid receptors and 101 ± 5.51% at κ opioid receptor.

As to `CCC(C)C[C@H]1C[C@@]2(O)[C@H]3Cc4ccc(O)cc4[C@@]2(CCN3CC2CC2)CC1=O` (stereo partly drawn) [Compound 66, (4bR,7S,8aS,9R)-11-(cyclopropylmethyl)-3,8a-dihydroxy-7-(2-methylbutyl)-8,8a,9,10-tetrahydro-5H-9,4b-(epiminoethano)phenanthren-6(7H)-one], the EC50 was > 200000 nM on μ-opioid receptors and 7.57 ± 1.14 nM at κ opioid receptor. Also, the Emax turned out to be 2.5% on μ-opioid receptors and 102 ± 1.33% at κ opioid receptor.

On to `CCCC[C@H]1C[C@@]2(O)[C@H]3Cc4ccc(O)cc4[C@@]2(CCN3CC2CC2)CC1=O` [Compound 67, (4bR,7S,8aS,9R)-7-butyl-11-(cyclopropylmethyl)-3,8a-dihydroxy-8,8a,9,10-tetrahydro-5H-9,4b-(epiminoethano)phenanthren-6(7H)-one], for which, at μ-opioid receptors, the concentration for a half-maximal effect (EC50) was > 200000 nM and the Emax came out at 2%. At κ opioid receptor, the half-maximal effective concentration (EC50) was 3 ± 0.12 nM and the maximal effect (Emax) stood at 101 ± 1.73%.

In the case of `CC(C)(C)C[C@H]1C[C@@]2(O)[C@H]3Cc4ccc(O)cc4[C@@]2(CCN3CC2CC2)CC1=O` [Compound 68, (4bR,7S,8aS,9R)-11-(cyclopropylmethyl)-3,8a-dihydroxy-7-neopentyl-8,8a,9,10-tetrahydro-5H-9,4b-(epiminoethano)phenanthren-6(7H)-one], on μ-opioid receptors, the concentration giving a half-maximal response (EC50) is > 200000 nM and the Emax was determined as 3%. Further, at κ opioid receptor, the concentration giving a half-maximal response (EC50) worked out at 20.5 ± 0.4 nM and the maximal response (Emax) is 69 ± 3.21%.

For `CC(C)C[C@H]1C[C@@]2(O)[C@H]3Cc4ccc(O)cc4[C@@]2(CCN3CC2CC2)CC1=O` [Compound 69, (4bR,7S,8aS,9R)-11-(cyclopropylmethyl)-3,8a-dihydroxy-7-isobutyl-8,8a,9,10-tetrahydro-5H-9,4b-(epiminoethano)phenanthren-6(7H)-one], the concentration giving a half-maximal response (EC50) at μ-opioid receptors is > 200000 nM; at κ opioid receptor it was 9.52 ± 1.41 nM. Also, the Emax came out at 2% at μ-opioid receptors and 95.2 ± 1.89% at κ opioid receptor.

Take `O=C1C[C@]23CCN(CC4CC4)[C@H](Cc4ccc(O)cc42)[C@]3(O)C[C@@H]1CC1CCCCC1` [Compound 70, (4bR,7S,8aS,9R)-7-(cyclohexylmethyl)-11-(cyclopropylmethyl)-3,8a-dihydroxy-8,8a,9,10-tetrahydro-5H-9,4b-(epiminoethano)phenanthren-6(7H)-one]: on μ-opioid receptors, the concentration for a half-maximal effect (EC50) was > 200000 nM and the Emax is 3.5%. Also, at κ opioid receptor, the half-maximal effective concentration (EC50) turned out to be 4.01 ± 0.47 nM and the Emax is 106 ± 3.8%.

`O=C1C[C@]23CCN(CC4CC4)[C@H](Cc4ccc(O)cc42)[C@]3(O)C[C@@H]1Cc1ccccc1` [Compound 71, (4bR,7S,8aS,9R)-7-benzyl-11-(cyclopropylmethyl)-3,8a-dihydroxy-8,8a,9,10-tetrahydro-5H-9,4b-(epiminoethano)phenanthren-6(7H)-one]: the half-maximal effective concentration (EC50) on μ-opioid receptors was 6.76 ± 1.73 nM; at κ opioid receptor it was 5.6 ± 0.72 nM. For the same molecule, the Emax was 17.7 ± 0.88% on μ-opioid receptors and 109 ± 5.45% at κ opioid receptor.

On to `C[C@H](NC(=O)C[C@H]1C[C@@]2(O)[C@H]3Cc4ccc(O)cc4[C@@]2(CCN3C)CC1=O)C(=O)O` [Compound 75, (2-((4bR,7R,8aS,9R)-3,8a-dihydroxy-11-methyl-6-oxo-6,7,8,8a,9,10-hexahydro-5H-9,4b-(epiminoethano)phenanthren-7-yl)acetyl)-L-alanine], for which, at μ-opioid receptors, the EC50 was 1150 ± 103 nM and the Emax came out at 95 ± 1.53%. Also, on κ opioid receptor, the 50% effective concentration (EC50) came out at 16600 ± 1190 nM and the Emax is 66.7 ± 1.2%.

In the case of `COc1ccc2c(c1)[C@]13CCN(C)[C@H](C2)[C@]1(O)C[C@H](CC(=O)N1CCCCC1)C(=O)C3` [Compound 76, (4bR,7R,8aS,9R)-8a-hydroxy-3-methoxy-11-methyl-7-(2-oxo-2-(piperidin-1-yl)ethyl)-8,8a,9,10-tetrahydro-5H-9,4b-(epiminoethano)phenanthren-6(7H)-one], at μ-opioid receptors, the half-maximal effective concentration (EC50) was found to be 16700 ± 2270 nM and the maximal response (Emax) is 61.7 ± 1.86%. On κ opioid receptor, the EC50 was > 200000 nM and the maximal effect (Emax) was 47.7 ± 2.19%.

Regarding `COc1ccc2c(c1)[C@]13CCN(C)[C@H](C2)[C@]1(O)C[C@H](CC(=O)N1CCCC1)C(=O)C3` [Compound 77, (4bR,7R,8aS,9R)-8a-hydroxy-3-methoxy-11-methyl-7-(2-oxo-2-(pyrrolidin-1-yl)ethyl)-8,8a,9,10-tetrahydro-5H-9,4b-(epiminoethano)phenanthren-6(7H)-one], at μ-opioid receptors, the EC50 turned out to be 17600 ± 3650 nM and the maximum response (Emax) was determined as 77 ± 2.08%. On κ opioid receptor, the 50% effective concentration (EC50) is > 200000 nM and the maximal effect (Emax) came to 49 ± 9.45%.

In the case of `COc1ccc2c(c1)[C@]13CCN(C)[C@H](C2)[C@]1(O)C[C@H](CC(=O)N1CCC(O)CC1)C(=O)C3` [Compound 78, (4bR,7R,8aS,9R)-8a-hydroxy-7-(2-(4-hydroxypiperidin-1-yl)-2-oxoethyl)-3-methoxy-11-methyl-8,8a,9,10-tetrahydro-5H-9,4b-(epiminoethano)phenanthren-6(7H)-one], on μ-opioid receptors, the EC50 turned out to be 10400 ± 4810 nM and the Emax worked out at 36.7 ± 9.17%. In addition, at κ opioid receptor, the half-maximal effective concentration (EC50) was > 200000 nM and the Emax was determined as 53.3 ± 1.45%.

In the case of `COc1ccc2c(c1)[C@]13CCN(C)[C@H](C2)[C@]1(O)C[C@H](CC(=O)N1CCOCC1)C(=O)C3` [Compound 79, (4bR,7R,8aS,9R)-8a-hydroxy-3-methoxy-11-methyl-7-(2-morpholino-2-oxoethyl)-8,8a,9,10-tetrahydro-5H-9,4b-(epiminoethano)phenanthren-6(7H)-one], the values for the concentration giving a half-maximal response (EC50) at μ-opioid receptors and at κ opioid receptor were 11700 ± 3620 nM and > 200000 nM, respectively. Besides, the Emax on μ-opioid receptors came out at 60 ± 10.2%; at κ opioid receptor, 51 ± 0.58%.

For `CN1CC[C@]23CC(=O)[C@@H](CC(=O)N4CCCCC4)C[C@@]2(O)[C@H]1Cc1ccc(O)cc13` [Compound 80, (4bR,7R,8aS,9R)-3,8a-dihydroxy-11-methyl-7-(2-oxo-2-(piperidin-1-yl)ethyl)-8,8a,9,10-tetrahydro-5H-9,4b-(epiminoethano)phenanthren-6(7H)-one], on μ-opioid receptors, the EC50 was 581 ± 22.1 nM and the maximal effect (Emax) came to 74 ± 0.58%. At κ opioid receptor, the EC50 was 1200 ± 114 nM and the maximum response (Emax) worked out at 43 ± 1.73%.

These data come from US9388162B2, “Substituted morphinans and the use thereof” (Purdue Pharma L.P., priority 2012, dated 2016).
